Laboratory results: patent publication US8548745B2, “Visual-servoing optical microscopy” (The Regents of the University of California, priority 2000, dated 2013)

Experiments:
MCF-7 WTC cells = assay: ADR visual servoing experiment, CAM perfusion until average MI threshold; format: cell-based, human; conditions: 1 μM CAM in DBPSGP perfused at 0.5 mL/min
Description: MCF-7 WTC cells were grown in 35 mm cell culture dishes, and were pre-stained with H42. After an approximately 1 hr pre-incubation with H42, cells were rinsed with DPBSGP and were placed in the warm microscope chamber. The ADR program successfully operated in the following fashion. Three digital images (360 nm excitation, 490 nm excitation, and transmitted light, brightfield) were acquired at regular specified intervals through this experiment and all the H42 stained nuclei were detected and segmented before the next image interval. The nuclear contours for each nucleus that were delineated in the blue channel were used to calculate a mean cellular fluorescence intensity value from the green channel (MI). An initial perfusion of DBPSGP solution only (syringe #1) was performed at 1.0 mL/min for 8.3 minutes, (as specified by the user), and then syringe #1 was stopped. Next, a perfusion of DBPSGP solution containing 1 μM CAM (syringe #2) was begun at 0.5 mL/min. When the average MI of all the cells reached a specified threshold, syringe #2 was stopped via successful visual servoing. It took 13.9 minutes for the cells to accumulate sufficient CAM, and for the system to detect sufficient intracellular CAM (in the nuclear region), before the system successfully stopped syringe #2, and restarted syringe #1. After 11.4 min (as specified) the system stopped syringe #1 again. […]

MCF-7 ADR (MDR) cells = assay: VSOM MDR assay (MDR Assay Beta-Test kit), calcein accumulation, run 2; conditions: for calcein accumulation in selected single cells on exposure to modulator: two of four selected single cell response curves, run 2, CAM+V (syringe #5) or CAM+MK
Description: Both runs used the pump schedule. […] The red line in each case represents the average of all the cell responses in the entire field of view.
The MDR Assay β-Test kit was also tested in a VSOM experiment, as described herein. […] Pumps are turned on and off at specified flow rates according to a pre-programmed recipe, or based on real-time analysis of individual cell responses. The CAM, V, and MK concentrations used are noted in the figure. The three exposures to CAM were 900 seconds (20 min) each, and thus the total exposure to CAM was 60 min. The black windows at the bottom of the Figure show the mean response of all cells in the field of view.
The plot and images were continuously refreshed and updated during the experiment. […] However, the mean cellular fluorescence of each cell was monitored during VSOM experiments, and making deviations from the mean easily detectable. […] Such cells are unable to retain calcein, and it leaks out, causing the fluorescence signal to drop.

mRNA translation = conditions: cell-free system (Mologni et al.); only when both PNA-ODNs are simultaneously present; cited from earlier work
MCF-7 WTC (DS) cells = assay: VSOM MDR assay (MDR Assay Beta-Test kit), calcein accumulation, run 1; format: cell-based, human; conditions: run 1, N=336, three CAM exposures
Excerpt: Both runs used the pump schedule.

DoHH2 lymphoma = conditions: full phosphorothioate 18-mer; severe immunodeficient mice (Raynaud et al.); cited from earlier work

With calcein-AM [CAM] the “time for cells to accumulate sufficient CAM to reach the specified average MI threshold” value (MCF-7 WTC cells) was 13.9 min.

In the case of `COc1ccc(CCN(C)CCCC(C#N)(c2ccc(OC)c(OC)c2)C(C)C)cc1OC` (centres unmarked) [verapamil], the “calcein accumulation in selected single cells on exposure to modulator” value (MCF-7 ADR (MDR) cells) is reported as “do not accumulate calcein until verapamil (V) exposure”.

In the case of “SEQ ID NO:3: 15-mer peptide nucleic acid oligodeoxyribonucleotide AGCG TGCG CCAT CCC (AGCGTGCGCCATCCC; all peptide nucleic acid (PNA); further chemistry not fully specified; listed as Homo sapiens)”, the “block of mRNA translation” value (mRNA translation) is listed as “complete block”.

For `O=C(O)CN(CC(=O)O)Cc1cc2c(cc1O)Oc1cc(O)c(CN(CC(=O)O)CC(=O)O)cc1C21OC(=O)c2ccccc21` [calcein], the “calcein accumulation (mean cellular fluorescence, mean of all cells in field)” value (MCF-7 ADR (MDR) cells; MDR cells, run 2, N=161, three CAM exposures) was 103±80 and the “calcein accumulation (mean cellular fluorescence, mean of all cells in field)” value (MCF-7 WTC (DS) cells) was 240±82.

For `CN(C)C(=O)CCSC(SCCC(=O)O)c1cccc(/C=C/c2ccc3ccc(Cl)cc3n2)c1` (centres unmarked) [MK-571], the “calcein accumulation in selected single cells on exposure to modulator” value (MCF-7 ADR (MDR) cells) was “not inhibited”.

In the case of “SEQ ID NO:2: 15-mer peptide nucleic acid oligodeoxyribonucleotide CCCC AGCC CCTA CCC (CCCCAGCCCCTACCC; all peptide nucleic acid (PNA); further chemistry not fully specified; listed as Homo sapiens)”, the “block of mRNA translation” value (mRNA translation) is listed as “complete block”.

For “SEQ ID NO:1: 18-mer TCTC CCAG CGTG CGCC AT, anti-sense to the first six codons of the open reading frame of bcl-2 (antisense TCTCCCAGCGTGCGCCAT; chemistry not given here; listed as Homo sapiens)”, the “efficacy against DoHH2 lymphoma” value (DoHH2 lymphoma) is given as “has shown efficacy”.
